Measured values as given in publication PMC6900016, “Synthesis of Indomorphan Pseudo‐Natural Product Inhibitors of Glucose Transporters GLUT‐1 and ‐3” (Angewandte Chemie (International Ed. in English), 2019).

Columns and labels:
A2780 = assay: cells; set-up: Cell growth inhibition, sulforhodamine B total protein staining; details: Homo sapiens, A2780; 72 h growth; read-out: Cell growth inhibition IC50/µM
Experimental: (§1) Cell panel profiling A panel of 94 cell lines was exposed to Glupin for 72 h to assess the influence on cell growth (Oncolead, Germany). Cell growth was determined using sulforhodamine B assay. Measurements were performed using a total protein staining protocol. Briefly, after treatement cells were fixed addition of 10% TCA (for adherent growing cells) or 50% TCA (for semi-adherent growing cells or cells growing in suspension). After an incubation at 4°C for 1 h, plates were washed twice with 400 μl of deionized water and dried. Cells were then stained with 100 μl of 0.04% wt/v sulforhodamine B. Plates were incubated at room temperature for at least 30 min and washed six times with 1% acetic acid to remove unbound stain. […] This effect was much stronger at a physiological glucose concentration (5 mM; Figure 5 b,c). […] IC50 values lower than 300 nM were obtained for more than 20 cell lines, whereas 24 cell lines were not affected by the compound, among them the peripheral blood mononuclear control cells (PBMCs). Sensitivity to Glupin was detected across various tissue types (Table S6).

NCIH460 = assay: cells; set-up: Cell growth inhibition, sulforhodamine B total protein staining; details: Homo sapiens, NCI-H460; 72 h growth; read-out: Cell growth inhibition IC50/µM
Experimental: as §1

U87MG = assay: cells; set-up: Cell growth inhibition, sulforhodamine B total protein staining; details: Homo sapiens, U-87 MG; 72 h growth; read-out: Cell growth inhibition IC50/µM
Experimental: as §1

TE671 = assay: cells; set-up: Cell growth inhibition, sulforhodamine B total protein staining; details: Homo sapiens, TE-671; 72 h growth; read-out: Cell growth inhibition IC50/µM
Experimental: as §1

SKLMS1 = assay: cells; set-up: Cell growth inhibition, sulforhodamine B total protein staining; details: Homo sapiens, SK-LMS-1; 72 h growth; read-out: Cell growth inhibition IC50/µM
Experimental: as §1

U2OS = assay: cells; set-up: Cell growth inhibition, sulforhodamine B total protein staining; details: Homo sapiens, U2OS; 72 h growth; read-out: Cell growth inhibition IC50/µM
Experimental: as §1

RD = assay: cells; set-up: Cell growth inhibition, sulforhodamine B total protein staining; details: Homo sapiens, RD; 72 h growth; read-out: Cell growth inhibition IC50/µM
Experimental: as §1

MT3 = assay: cells; set-up: Cell growth inhibition, sulforhodamine B total protein staining; details: MT-3; 72 h growth; read-out: Cell growth inhibition IC50/µM
Experimental: as §1

MG63 = assay: cells; set-up: Cell growth inhibition, sulforhodamine B total protein staining; details: Homo sapiens, MG-63; 72 h growth; read-out: Cell growth inhibition IC50/µM
Experimental: as §1

K562 = assay: cells; set-up: Cell growth inhibition, sulforhodamine B total protein staining; details: Homo sapiens, K562; 72 h growth; read-out: Cell growth inhibition IC50/µM
Experimental: as §1

HEK293 = assay: cells; set-up: Cell growth inhibition, sulforhodamine B total protein staining; details: Homo sapiens, HEK293; 72 h growth; read-out: Cell growth inhibition IC50/µM
Experimental: as §1

SKNSH = assay: cells; set-up: Cell growth inhibition, sulforhodamine B total protein staining; details: Homo sapiens, SK-N-SH; 72 h growth; read-out: Cell growth inhibition IC50/µM
Experimental: as §1

SUDHL6 = assay: cells; set-up: Cell growth inhibition, sulforhodamine B total protein staining; details: Homo sapiens, SU-DHL-6; 72 h growth; read-out: Cell growth inhibition IC50/µM
Experimental: as §1

DU145 = assay: cells; set-up: Cell growth inhibition, sulforhodamine B total protein staining; details: Homo sapiens, DU-145; 72 h growth; read-out: Cell growth inhibition IC50/µM
Experimental: as §1

PBMC = assay: cells; set-up: Cell growth inhibition, sulforhodamine B total protein staining; details: PBMC; 72 h growth; read-out: Cell growth inhibition IC50/µM
Experimental: as §1

SAOS2 = assay: cells; set-up: Cell growth inhibition, sulforhodamine B total protein staining; details: Homo sapiens, SAOS-2; 72 h growth; read-out: Cell growth inhibition IC50/µM
Experimental: as §1

DLD1 = assay: cells; set-up: Cell growth inhibition, sulforhodamine B total protein staining; details: Homo sapiens, DLD-1; 72 h growth; read-out: Cell growth inhibition IC50/µM
Experimental: as §1

HS578T = assay: cells; set-up: Cell growth inhibition, sulforhodamine B total protein staining; details: Homo sapiens, Hs-578T; 72 h growth; read-out: Cell growth inhibition IC50/µM
Experimental: as §1

J82 = assay: cells; set-up: Cell growth inhibition, sulforhodamine B total protein staining; details: Homo sapiens, J82; 72 h growth; read-out: Cell growth inhibition IC50/µM
Experimental: as §1

A375 = assay: cells; set-up: Cell growth inhibition, sulforhodamine B total protein staining; details: Homo sapiens, A-375; 72 h growth; read-out: Cell growth inhibition IC50/µM
Experimental: as §1

COLO678 = assay: cells; set-up: Cell growth inhibition, sulforhodamine B total protein staining; details: Homo sapiens, COLO-678; 72 h growth; read-out: Cell growth inhibition IC50/µM
Experimental: as §1

L363 = assay: cells; set-up: Cell growth inhibition, sulforhodamine B total protein staining; details: Homo sapiens, L-363; 72 h growth; read-out: Cell growth inhibition IC50/µM
Experimental: as §1

GLUT-3 = target: T1, GLUT-3 (Homo sapiens, UniProt P11169); assay: CETSA/thermal proteome profiling in SW480 lysate (ΔTm […] °C by MS, […] °C by immunoblot, […]); 2DG uptake IC50 in DLD-1 GLUT1(-/-) cells; shift on GLUT-3 overexpression in CHO; type: cell-based
T1 construct: gene SLC2A3
T1 sequence (P11169 whole entry): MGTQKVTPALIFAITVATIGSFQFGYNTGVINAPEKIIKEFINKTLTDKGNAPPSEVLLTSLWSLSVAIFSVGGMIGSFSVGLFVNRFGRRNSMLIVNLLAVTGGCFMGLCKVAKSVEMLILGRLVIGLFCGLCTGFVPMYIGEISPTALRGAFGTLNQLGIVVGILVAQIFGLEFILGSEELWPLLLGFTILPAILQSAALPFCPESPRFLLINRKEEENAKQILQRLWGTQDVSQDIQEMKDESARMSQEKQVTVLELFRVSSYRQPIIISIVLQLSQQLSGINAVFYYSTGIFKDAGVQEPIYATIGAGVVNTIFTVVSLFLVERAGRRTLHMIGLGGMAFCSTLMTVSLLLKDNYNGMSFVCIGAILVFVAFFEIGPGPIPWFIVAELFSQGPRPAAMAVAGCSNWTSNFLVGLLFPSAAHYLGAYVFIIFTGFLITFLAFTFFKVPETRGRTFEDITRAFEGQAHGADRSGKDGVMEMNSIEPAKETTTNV

Question: How did the IC50 (A2780) turn out when `CCOC(=O)Cn1c2c(c3ccccc31)C[C@@H]1C[C@H]2C(OC)CN1C(=O)c1cccnc1SC` (single isomer, unassigned; (+)) [(+)-5a, Glupin] was run?
Answer: 0.248 µM

Question: And the IC50 (NCIH460)?
Answer: 0.572 µM

Question: What about the IC50 (U87MG) of the same molecule?
Answer: > 30 µM

Question: And the IC50 (TE671)?
Answer: 0.299 µM

Question: What about the IC50 (SKLMS1) of the same molecule?
Answer: 0.699 µM

Question: What about the IC50 (U2OS) of the same molecule?
Answer: 0.502 µM

Question: What about the IC50 (RD) of the same molecule?
Answer: 0.842 µM

Question: And the IC50 (MT3)?
Answer: 2.54 µM

Question: What about the IC50 (MG63) of the same molecule?
Answer: > 30 µM

Question: What about the IC50 (K562) of the same molecule?
Answer: 0.137 µM

Question: And the IC50 (HEK293)?
Answer: 0.463 µM

Question: And the IC50 (SKNSH)?
Answer: 0.084 µM

Question: And the IC50 (SUDHL6)?
Answer: 0.092 µM

Question: And the IC50 (DU145)?
Answer: 0.317 µM

Question: And the IC50 (PBMC)?
Answer: > 30 µM

Question: And the IC50 (SAOS2)?
Answer: > 30 µM

Question: What about the IC50 (DLD1) of the same molecule?
Answer: 0.825 µM

Question: And the IC50 (HS578T)?
Answer: 0.12 µM

Question: What about the IC50 (J82) of the same molecule?
Answer: 7.25 µM

Question: What about the IC50 (A375) of the same molecule?
Answer: 0.659 µM

Question: What about the IC50 (COLO678) of the same molecule?
Answer: > 30 µM

Question: And the IC50 (L363)?
Answer: 2.87 µM

Question: What about the IC50 (GLUT-3) of the same molecule?
Answer: 11.4 ± 1.6 nM
